Drawing on ChEMBL document CHEMBL1201862, “PubChem BioAssay data set” (2004), this text covers IC50, EC50 and AC50 for four compounds.

The source made the active and inactive calls.

In test [1] the target is Hepatocyte nuclear factor 4-alpha (Homo sapiens, UniProt P41235). The test is classed as functional, cell-based.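 Also: biochemical luminescence-based dose-response counterscreen measuring inhibition of HNF4 dimerization, run alongside a screen for blockers of ABHD5–perilipin-5 interaction; split luciferase complementation of HNF4 fusion proteins in cell lysate measuring dimerization.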
Sequence of Hepatocyte nuclear factor 4-alpha (P41235 whole entry, the tested form may be a part): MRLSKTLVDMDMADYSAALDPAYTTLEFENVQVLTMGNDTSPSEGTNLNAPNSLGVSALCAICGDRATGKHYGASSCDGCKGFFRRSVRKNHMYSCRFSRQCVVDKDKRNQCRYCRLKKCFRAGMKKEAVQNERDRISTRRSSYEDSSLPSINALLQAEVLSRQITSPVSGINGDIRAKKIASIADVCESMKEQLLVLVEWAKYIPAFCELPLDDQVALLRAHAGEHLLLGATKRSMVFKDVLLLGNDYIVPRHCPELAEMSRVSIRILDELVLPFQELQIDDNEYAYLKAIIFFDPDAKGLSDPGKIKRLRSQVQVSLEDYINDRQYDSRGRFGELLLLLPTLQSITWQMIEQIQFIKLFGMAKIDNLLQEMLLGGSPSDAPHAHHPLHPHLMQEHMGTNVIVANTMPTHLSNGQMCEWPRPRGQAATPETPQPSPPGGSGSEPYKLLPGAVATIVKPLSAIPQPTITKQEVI
Test [2] concerns the target Induced myeloid leukemia cell differentiation protein Mcl-1 (Homo sapiens, UniProt Q07820). The test is classed as functional.
The target of test [3] is T1, Mannose-6-phosphate isomerase (Homo sapiens, UniProt P34949).
T1 sequence (P34949 whole entry): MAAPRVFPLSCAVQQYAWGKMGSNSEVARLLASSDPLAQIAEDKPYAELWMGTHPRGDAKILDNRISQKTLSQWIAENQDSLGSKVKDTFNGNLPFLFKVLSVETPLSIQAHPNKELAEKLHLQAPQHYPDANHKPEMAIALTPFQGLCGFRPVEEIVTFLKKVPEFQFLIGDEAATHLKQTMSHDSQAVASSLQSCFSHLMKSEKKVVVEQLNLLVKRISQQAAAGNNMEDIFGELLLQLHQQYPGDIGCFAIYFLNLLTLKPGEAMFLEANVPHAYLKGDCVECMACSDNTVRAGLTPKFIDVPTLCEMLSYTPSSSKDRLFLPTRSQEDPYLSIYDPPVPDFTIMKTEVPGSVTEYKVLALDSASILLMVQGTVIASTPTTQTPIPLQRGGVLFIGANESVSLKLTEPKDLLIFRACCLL
The experiment in a line: human PMI inhibitors, high substrate, primary screen, biochemical, fluorescence intensity, high mannose 6-phosphate (AID 1220).

In test [4] the target is Nuclear receptor subfamily 5 group A member 2 (Homo sapiens, UniProt O00482). It counts as functional, cell-based.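 Also: HEK293T cells transfected with LRH-1 and a StAR promoter luciferase reporter; potency for inhibitors that lower LRH-1 driven reporter light.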
Sequence of Nuclear receptor subfamily 5 group A member 2 (O00482 whole entry): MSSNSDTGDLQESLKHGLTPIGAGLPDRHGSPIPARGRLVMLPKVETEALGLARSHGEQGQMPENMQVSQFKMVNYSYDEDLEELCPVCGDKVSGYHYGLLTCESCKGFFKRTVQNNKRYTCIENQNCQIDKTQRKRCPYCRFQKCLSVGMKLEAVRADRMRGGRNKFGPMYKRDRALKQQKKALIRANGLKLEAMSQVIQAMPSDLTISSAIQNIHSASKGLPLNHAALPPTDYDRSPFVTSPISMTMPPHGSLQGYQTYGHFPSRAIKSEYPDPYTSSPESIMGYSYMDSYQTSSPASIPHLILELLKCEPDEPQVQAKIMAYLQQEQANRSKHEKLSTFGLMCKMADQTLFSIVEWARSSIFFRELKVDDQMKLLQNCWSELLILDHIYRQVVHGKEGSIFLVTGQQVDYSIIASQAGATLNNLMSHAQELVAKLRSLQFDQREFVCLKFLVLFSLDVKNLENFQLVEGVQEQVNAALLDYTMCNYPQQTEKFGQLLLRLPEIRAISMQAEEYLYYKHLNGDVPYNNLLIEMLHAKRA
Test [5] is described as follows: StAR promoter reporter inhibition counter-screen, dose response, counter-screen for LRH-1 inverse agonist project, cell-based, luminescence, luciferase reporter (AID 651969). It counts as functional.
Test [6] addresses Steroidogenic factor 1 (Homo sapiens, UniProt Q13285). The test can be described thus: Counterscreen for inverse agonists of the liver receptor homolog-1 (LRH-1; NR5A2): Luminescence-based cell-based high throughput dose response assay to identify inverse agonists of the Steroidogenic Factor 1 Nuclear Receptor (SF1; NR5A1). It counts as functional. A general note: Counterscreens check selectivity or assay interference.

A short description of test [7]: Counterscreen for activators of the function of SWI/SNF related, matrix associated, actin dependent regulator of chromatin, subfamily a, member 2 (SMARCA2, BRM): Luminescence-based cell-based high throughput dose response assay to identify non-selective compounds using the VP16 reporter assay. It counts as functional.
The target of test [8] is Paired box protein Pax-8 (Homo sapiens, UniProt Q06710). The experiment in a line: inhibitors of PAX8-driven TPO luciferase reporter, dose response, RMG-I cells, cherry-pick (AID 687027).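 Also: luciferase reporter driven by Pax8 target thyroperoxidase promoter measured by SteadyGlo luminescence.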 It counts as functional, cell-based. Background: A reporter such as luciferase makes a cellular process visible.
Sequence of Paired box protein Pax-8 (Q06710 whole entry): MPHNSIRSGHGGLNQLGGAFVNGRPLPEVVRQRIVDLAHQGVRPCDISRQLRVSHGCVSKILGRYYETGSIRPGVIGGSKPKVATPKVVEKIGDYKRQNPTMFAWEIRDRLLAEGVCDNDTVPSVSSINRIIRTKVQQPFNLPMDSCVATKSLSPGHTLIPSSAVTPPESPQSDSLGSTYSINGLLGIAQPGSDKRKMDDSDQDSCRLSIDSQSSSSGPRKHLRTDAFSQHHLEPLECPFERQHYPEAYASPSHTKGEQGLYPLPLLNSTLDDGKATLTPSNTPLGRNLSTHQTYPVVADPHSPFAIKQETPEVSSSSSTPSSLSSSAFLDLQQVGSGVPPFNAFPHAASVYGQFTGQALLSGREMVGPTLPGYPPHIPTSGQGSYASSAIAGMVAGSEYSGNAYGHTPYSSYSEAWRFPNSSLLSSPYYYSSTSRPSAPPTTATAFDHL
In test [9] the target is T2, Interleukin-8 (Homo sapiens, UniProt P10145). The experiment in a line: Dose Response confirmation of uHTS small molecule hits for cystic fibrosis induced NFkb Inhibitors in a TNFa-induced IL8 counterscreen. It counts as functional. Particulars: read-out: IC50_Mean.
T2 sequence (P10145 whole entry): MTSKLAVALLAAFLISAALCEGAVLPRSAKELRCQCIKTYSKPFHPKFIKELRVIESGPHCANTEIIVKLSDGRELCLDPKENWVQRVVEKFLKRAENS
For test [10], the target named is SWI/SNF-related matrix-associated actin-dependent regulator of chromatin subfamily A member 2 (Homo sapiens, UniProt P51531). The experiment in a line: Luminescence-based cell-based high throughput dose response assay to identify activators of the function of SWI/SNF related, matrix associated, actin dependent regulator of chromatin, subfamily a, member 2 (SMARCA2, BRM). The test is classed as functional.
Sequence of SWI/SNF-related matrix-associated actin-dependent regulator of chromatin subfamily A member 2 (P51531 whole entry): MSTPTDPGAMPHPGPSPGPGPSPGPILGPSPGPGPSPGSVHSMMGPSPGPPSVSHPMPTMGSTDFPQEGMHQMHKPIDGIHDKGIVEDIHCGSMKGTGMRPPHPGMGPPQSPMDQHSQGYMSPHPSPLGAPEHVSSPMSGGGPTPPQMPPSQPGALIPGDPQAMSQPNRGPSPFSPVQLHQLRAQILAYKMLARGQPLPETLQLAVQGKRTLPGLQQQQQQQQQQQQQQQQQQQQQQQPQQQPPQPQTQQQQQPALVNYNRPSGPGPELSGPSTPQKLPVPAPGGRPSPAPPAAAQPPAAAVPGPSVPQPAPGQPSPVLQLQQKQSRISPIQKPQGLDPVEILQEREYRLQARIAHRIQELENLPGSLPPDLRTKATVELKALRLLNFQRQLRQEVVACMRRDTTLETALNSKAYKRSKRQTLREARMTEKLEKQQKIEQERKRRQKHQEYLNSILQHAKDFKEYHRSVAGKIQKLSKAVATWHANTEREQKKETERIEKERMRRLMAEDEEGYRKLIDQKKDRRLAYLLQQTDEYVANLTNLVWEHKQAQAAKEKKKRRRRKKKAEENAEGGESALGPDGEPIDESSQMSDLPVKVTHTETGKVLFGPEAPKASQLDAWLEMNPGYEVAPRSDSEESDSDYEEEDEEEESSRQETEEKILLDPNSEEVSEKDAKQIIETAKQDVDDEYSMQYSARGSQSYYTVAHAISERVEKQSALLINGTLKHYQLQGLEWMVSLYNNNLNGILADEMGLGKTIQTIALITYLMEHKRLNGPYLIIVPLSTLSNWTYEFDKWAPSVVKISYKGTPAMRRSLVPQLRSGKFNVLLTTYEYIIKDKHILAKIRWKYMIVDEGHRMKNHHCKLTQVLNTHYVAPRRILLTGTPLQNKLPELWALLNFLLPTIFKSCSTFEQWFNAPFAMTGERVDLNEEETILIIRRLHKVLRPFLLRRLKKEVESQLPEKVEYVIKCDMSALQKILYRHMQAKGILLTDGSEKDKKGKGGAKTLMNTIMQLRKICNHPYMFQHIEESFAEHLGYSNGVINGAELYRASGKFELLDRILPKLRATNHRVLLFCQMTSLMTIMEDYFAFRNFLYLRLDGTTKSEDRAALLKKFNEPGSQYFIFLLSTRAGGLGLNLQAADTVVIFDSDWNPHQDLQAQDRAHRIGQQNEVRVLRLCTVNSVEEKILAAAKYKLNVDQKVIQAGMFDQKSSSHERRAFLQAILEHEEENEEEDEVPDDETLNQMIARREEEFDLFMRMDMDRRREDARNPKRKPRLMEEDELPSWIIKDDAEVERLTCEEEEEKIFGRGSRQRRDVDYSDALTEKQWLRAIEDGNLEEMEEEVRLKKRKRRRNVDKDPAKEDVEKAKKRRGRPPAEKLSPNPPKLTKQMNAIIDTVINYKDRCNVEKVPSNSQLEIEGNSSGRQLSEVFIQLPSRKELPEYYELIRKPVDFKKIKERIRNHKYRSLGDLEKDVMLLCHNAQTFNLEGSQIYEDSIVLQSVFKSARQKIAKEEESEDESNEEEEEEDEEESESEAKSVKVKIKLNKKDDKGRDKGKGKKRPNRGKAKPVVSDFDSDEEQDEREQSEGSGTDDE

For test [11], the target named is T2, Interleukin-8. The experiment in a line: Dose Response confirmation of uHTS small molecule hits for cystic fibrosis induced NFkb Inhibitors in a PAF-induced IL8 counterscreen. The test is classed as functional. The settings on record: read-out: IC50_Mean.
The target in test [12] is T3, Sentrin-specific protease 6 (Homo sapiens, UniProt Q9GZR1).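 Also: Luminescence-based dose-response confirmatory assay of SENP6 inhibition, following up an ultra-high-throughput screen.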
T3 sequence (Q9GZR1 whole entry): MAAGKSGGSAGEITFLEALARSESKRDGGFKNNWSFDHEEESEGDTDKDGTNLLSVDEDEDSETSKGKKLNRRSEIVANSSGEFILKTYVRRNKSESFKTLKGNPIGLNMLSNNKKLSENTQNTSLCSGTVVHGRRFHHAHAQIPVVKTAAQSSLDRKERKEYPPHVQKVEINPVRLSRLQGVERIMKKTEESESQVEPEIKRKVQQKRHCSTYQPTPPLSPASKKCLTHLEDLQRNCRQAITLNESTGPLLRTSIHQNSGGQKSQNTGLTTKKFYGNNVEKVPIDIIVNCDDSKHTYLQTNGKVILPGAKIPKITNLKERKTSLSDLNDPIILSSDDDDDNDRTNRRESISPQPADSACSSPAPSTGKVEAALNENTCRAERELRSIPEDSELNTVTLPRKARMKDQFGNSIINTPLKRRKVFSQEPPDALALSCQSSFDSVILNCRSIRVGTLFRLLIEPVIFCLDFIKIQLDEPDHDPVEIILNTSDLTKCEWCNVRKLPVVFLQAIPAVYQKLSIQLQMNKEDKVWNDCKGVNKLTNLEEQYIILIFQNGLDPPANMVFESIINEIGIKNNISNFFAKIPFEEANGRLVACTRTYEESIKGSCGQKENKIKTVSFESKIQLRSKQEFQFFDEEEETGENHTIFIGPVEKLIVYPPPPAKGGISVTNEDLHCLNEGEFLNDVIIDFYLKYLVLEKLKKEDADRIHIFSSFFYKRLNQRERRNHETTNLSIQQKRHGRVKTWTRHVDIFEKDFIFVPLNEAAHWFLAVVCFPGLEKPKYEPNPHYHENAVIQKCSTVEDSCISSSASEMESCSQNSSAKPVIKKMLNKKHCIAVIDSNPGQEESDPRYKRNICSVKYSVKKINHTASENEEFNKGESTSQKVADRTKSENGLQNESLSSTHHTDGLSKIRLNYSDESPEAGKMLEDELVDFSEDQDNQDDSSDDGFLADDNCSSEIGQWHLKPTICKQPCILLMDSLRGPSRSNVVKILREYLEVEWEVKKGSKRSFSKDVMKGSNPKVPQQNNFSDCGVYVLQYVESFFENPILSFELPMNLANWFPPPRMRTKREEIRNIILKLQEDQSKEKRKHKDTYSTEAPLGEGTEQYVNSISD
It counts as functional.

Test [13] deals with T4, Sentrin-specific protease 8 (Homo sapiens, UniProt Q96LD8).
T4 sequence (Q96LD8 whole entry): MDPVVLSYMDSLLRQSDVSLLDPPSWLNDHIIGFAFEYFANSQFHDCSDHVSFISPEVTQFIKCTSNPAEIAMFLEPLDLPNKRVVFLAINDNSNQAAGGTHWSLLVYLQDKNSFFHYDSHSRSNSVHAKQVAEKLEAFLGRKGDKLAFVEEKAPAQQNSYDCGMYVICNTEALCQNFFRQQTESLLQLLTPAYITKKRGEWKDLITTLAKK
The test is classed as functional.

The target of test [14] is T5, Caspase-3 (Homo sapiens, UniProt P42574).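 Also: Dose-response selectivity test against caspase-3 for candidate inhibitors of sentrin-specific proteases (SENPs).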
T5 sequence (P42574 whole entry): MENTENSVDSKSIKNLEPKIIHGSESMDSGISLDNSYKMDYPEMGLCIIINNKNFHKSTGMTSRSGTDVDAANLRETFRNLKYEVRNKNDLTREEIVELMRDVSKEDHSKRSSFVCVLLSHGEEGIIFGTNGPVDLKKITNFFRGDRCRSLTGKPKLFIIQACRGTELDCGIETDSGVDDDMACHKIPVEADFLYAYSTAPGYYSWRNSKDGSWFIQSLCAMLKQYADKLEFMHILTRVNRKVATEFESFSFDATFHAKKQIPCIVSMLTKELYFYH
It counts as functional.

Test [15] concerns the target T6, Low molecular weight phosphotyrosine protein phosphatase (Homo sapiens, UniProt P24666).
T6 sequence (P24666 whole entry): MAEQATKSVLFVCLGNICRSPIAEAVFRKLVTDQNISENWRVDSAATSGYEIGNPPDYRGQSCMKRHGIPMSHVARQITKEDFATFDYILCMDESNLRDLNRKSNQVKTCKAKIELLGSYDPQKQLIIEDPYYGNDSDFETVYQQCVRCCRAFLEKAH
The test is classed as functional. Particulars: read-out: IC50_Mean.

Test [16] has as its target T6, Low molecular weight phosphotyrosine protein phosphatase. It counts as functional. The settings on record: read-out: IC50_Mean. This is another data set of the same source.
In test [17] the target is T7, Sentrin-specific protease 7 (Homo sapiens, UniProt Q9BQF6).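 Also: Luminescence-based dose-response confirmation of ultra-high-throughput screening hits, measuring inhibition of SENP7.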
T7 sequence (Q9BQF6 whole entry): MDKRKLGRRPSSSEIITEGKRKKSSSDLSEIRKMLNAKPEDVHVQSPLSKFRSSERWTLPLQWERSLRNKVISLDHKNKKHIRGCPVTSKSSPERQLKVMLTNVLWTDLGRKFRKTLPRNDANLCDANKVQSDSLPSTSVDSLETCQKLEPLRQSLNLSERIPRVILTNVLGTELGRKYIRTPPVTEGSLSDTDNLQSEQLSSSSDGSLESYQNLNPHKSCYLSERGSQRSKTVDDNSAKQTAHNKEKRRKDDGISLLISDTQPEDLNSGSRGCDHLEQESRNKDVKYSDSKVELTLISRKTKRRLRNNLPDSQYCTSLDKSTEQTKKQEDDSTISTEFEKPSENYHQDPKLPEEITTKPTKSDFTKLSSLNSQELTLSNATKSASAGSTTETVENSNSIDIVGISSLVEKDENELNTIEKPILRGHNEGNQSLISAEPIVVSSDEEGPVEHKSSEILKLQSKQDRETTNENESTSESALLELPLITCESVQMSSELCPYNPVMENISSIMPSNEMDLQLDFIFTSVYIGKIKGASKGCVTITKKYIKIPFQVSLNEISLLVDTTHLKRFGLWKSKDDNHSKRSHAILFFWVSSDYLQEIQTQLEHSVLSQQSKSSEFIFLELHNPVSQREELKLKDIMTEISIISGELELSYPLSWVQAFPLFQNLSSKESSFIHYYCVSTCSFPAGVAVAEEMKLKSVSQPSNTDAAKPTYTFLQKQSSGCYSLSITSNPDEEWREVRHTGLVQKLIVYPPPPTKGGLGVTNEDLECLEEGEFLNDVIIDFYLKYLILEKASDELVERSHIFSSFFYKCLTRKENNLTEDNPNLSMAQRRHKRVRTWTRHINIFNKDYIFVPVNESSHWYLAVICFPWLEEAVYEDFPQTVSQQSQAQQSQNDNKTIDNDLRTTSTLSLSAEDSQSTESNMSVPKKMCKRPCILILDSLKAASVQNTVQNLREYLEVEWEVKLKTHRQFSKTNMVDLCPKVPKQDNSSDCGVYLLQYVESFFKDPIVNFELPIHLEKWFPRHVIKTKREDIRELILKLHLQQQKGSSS
It counts as functional.

Test [18] concerns the target T8, Tyrosine-protein phosphatase non-receptor type 22 (Homo sapiens, UniProt Q9Y2R2).
T8 sequence (Q9Y2R2 whole entry): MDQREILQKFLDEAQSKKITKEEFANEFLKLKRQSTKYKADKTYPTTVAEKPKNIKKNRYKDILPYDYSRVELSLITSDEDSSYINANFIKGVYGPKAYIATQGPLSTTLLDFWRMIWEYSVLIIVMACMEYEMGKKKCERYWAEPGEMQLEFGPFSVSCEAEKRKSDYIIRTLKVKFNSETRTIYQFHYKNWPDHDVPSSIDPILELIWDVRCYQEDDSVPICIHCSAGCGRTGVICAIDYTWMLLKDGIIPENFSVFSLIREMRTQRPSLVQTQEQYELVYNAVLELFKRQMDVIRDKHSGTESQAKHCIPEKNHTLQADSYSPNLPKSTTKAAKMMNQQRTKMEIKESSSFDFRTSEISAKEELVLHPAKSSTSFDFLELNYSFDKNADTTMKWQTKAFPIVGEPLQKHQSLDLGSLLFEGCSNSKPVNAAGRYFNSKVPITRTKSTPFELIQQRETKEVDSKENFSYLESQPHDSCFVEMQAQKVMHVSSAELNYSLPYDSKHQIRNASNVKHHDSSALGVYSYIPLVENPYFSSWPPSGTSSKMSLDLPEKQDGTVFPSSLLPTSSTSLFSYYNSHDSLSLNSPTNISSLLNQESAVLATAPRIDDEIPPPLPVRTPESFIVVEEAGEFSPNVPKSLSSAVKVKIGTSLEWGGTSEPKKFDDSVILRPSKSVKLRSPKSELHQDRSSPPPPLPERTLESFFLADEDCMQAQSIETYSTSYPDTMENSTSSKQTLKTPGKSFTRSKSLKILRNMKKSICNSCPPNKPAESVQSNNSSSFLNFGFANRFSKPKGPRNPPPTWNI
The test can be described thus: LYP phosphatase inhibition for selectivity, dose response, selectivity assay for LMPTP inhibitor project, biochemical, fluorescence, LYP catalytic domain (AID 652006). The test is classed as functional. The settings on record: read-out: IC50_Mean.

Sequence of Induced myeloid leukemia cell differentiation protein Mcl-1 (Q07820 whole entry): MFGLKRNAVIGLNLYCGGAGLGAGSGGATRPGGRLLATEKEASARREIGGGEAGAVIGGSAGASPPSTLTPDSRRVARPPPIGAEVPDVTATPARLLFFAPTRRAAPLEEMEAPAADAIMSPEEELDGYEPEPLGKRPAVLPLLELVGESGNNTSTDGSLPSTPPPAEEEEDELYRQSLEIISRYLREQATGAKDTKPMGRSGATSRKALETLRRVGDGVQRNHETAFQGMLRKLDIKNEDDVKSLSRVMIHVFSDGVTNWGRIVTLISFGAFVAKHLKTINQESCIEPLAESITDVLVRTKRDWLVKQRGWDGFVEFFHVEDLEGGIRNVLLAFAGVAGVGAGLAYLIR
Sequence of Steroidogenic factor 1 (Q13285 whole entry): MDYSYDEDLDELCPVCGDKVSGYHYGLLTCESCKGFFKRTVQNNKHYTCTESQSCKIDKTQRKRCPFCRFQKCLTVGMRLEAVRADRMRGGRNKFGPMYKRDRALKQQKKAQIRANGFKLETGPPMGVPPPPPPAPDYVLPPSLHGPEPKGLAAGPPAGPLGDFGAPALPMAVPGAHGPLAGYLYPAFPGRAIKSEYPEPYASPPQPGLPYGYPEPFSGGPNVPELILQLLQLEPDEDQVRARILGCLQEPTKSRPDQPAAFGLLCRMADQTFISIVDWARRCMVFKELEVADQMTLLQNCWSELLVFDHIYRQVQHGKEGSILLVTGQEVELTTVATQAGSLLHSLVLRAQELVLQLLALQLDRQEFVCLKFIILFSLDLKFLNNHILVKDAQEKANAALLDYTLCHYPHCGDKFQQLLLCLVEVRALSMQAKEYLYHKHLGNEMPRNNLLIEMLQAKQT

In the case of `CCOC(=O)c1c(C)oc2c1c(CN1CCN(CCO)CC1)c(O)c1ccccc12`, the IC50 in test [1] is 2.31 µM (active); in [2], 1.13 µM (active); in [3] it was > 50 µM (not active).

Take `CCc1cc(=O)oc2c(C)c(OCC(=O)NCCN3CCOCC3)ccc12`: the values for the IC50 in test [4], in test [5] and in test [6] were 35.9 µM (inactive), 35.9 µM (inactive) and 9.97 µM (active), respectively.

On to `C=C1C(=O)[C@]23C[C@H]1CC[C@H]2[C@]1(C)[C@@H](OC(C)=O)CC[C@@](C)(C(=O)O)[C@H]1C[C@@H]3O`, for which the EC50 in test [7] and in [10] was > 91.3 µM (inactive) throughout. Further, the concentration at half-maximal activity (AC50) in test [8] was 4.07 µM (active). Also, the IC50 in test [9] is > 79 µM (inactive); in test [11] it was 293 nM (active).

Regarding `O=C(/C=C/c1ccc(Br)cc1)NC(=O)c1ccccc1O`, the IC50 in [12] was 15.2 µM (active); in test [13], 26.9 µM (active); in [14] it was > 100 µM (inactive); in test [15], 22.2 µM (inactive); in [16] it was 9.98 µM (active); in test [17] it was 8.1 µM (active). Besides, in test [18], the IC50 is 43.6 µM (inactive).

A word on the EC50: it is the concentration at which the effect is half-maximal. The term AC50 denotes the concentration giving half of the maximal activity seen.
